TGI data for seven compounds are collected here from PubChem BioAssay (NCI).

Test systems include SK-OV-3 ovarian; CAKI-1 renal; MOLT-4 leukemia; A498 renal; MDA-MB-435; SK-MEL-28 melanoma; OVCAR-3 ovarian; MALME-3M melanoma; MCF7 breast; EKVX NSCLC.
What all share (test): DTP human tumour cell line panel, 48 h

Values joined by “and” are separate entries in the source; they are usually repeats but may differ in a detail not shown here. Identical values can stand only once.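 Step 1: Grow cells in 96-well plates. Step 2: Expose to compound for 48 hours at 5 concentrations. Step 3: Interpolate endpoints linearly; if unreached, use highest concentration. At the TGI there is no net growth.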 *1 amine or outer side, *2 acyl side, *3 side chain or, on linkers, in order; H or OH if unused. Where a SMILES comes first, the peptide text is derived from it. Bridges are numbered along the chain shown (N, C = ends). Roman numbers before positions name the chains, in order. [ ]: non-standard residue; d: D form. Actinocin(9to1) = Cc1c2oc3c(C)ccc(C(=O)[*:1])c3nc-2c(C(=O)[*:2])c(N)c1=O; Hyp = O=C(O)[CH]1C[CH](O)CN1; NMeV = CN[CH](C(=O)O)C(C)C; Sar = CNCC(=O)O

Turning to `Cc1c2oc3c(C)ccc(C(=O)NC4C(=O)NC(C(C)C)C(=O)N5CC(O)CC5C(=O)N(C)CC(=O)N(C)C(C(C)C)C(=O)OC4C)c3nc-2c(C(=O)NC2C(=O)NC(C(C)C)C(=O)N3CC(O)CC3C(=O)N(C)CC(=O)N(C)C(C(C)C)C(=O)OC2C)c(N)c1=O` (stereo not given) (I: TV[Hyp][Sar][NMeV] / II: TV[Hyp][Sar][NMeV]; ester I:1-I:C, II:1-II:C; linker I:N-II:N via Actinocin(9to1); configuration not given here), the TGI in the experiment on SK-OV-3 ovarian, in the experiment on CAKI-1 renal, in the experiment on MOLT-4 leukemia, with A498 renal, in the experiment with MDA-MB-435 and with SK-MEL-28 melanoma was over 1 µM each time. Besides, the TGI in the experiment on OVCAR-3 ovarian, in the experiment with MALME-3M melanoma, with MCF7 breast and in the experiment on EKVX NSCLC was over 1 µM in each case.

As to `Cc1ccc(N=Nc2c(O)ccc3cc(S(=O)(=O)O)ccc23)cc1`, the TGI (as a rule, the concentration giving total growth inhibition) was over 100 µM with SK-OV-3 ovarian; > 100 µM and 80.8 µM with CAKI-1 renal; over 100 µM in the experiment on MOLT-4 leukemia; over 100 µM in the experiment with A498 renal; over 100 µM with MDA-MB-435; over 100 µM in the experiment with SK-MEL-28 melanoma. Besides, the TGI in the experiment with OVCAR-3 ovarian, in the experiment with MALME-3M melanoma, with MCF7 breast and with EKVX NSCLC was over 100 µM in each case.

In the case of `Cc1cc2c(cc1C)C(=O)C1(C2)Cc2cc3c(cc2C1=O)CCC3` (stereo not given), the TGI in the experiment on SK-OV-3 ovarian, in the experiment on CAKI-1 renal, in the experiment on MOLT-4 leukemia, with A498 renal, in the experiment with MDA-MB-435 and in the experiment on SK-MEL-28 melanoma was over 100 µM in each case. Moreover, the total growth inhibition concentration (TGI) with OVCAR-3 ovarian, with MALME-3M melanoma, in the experiment on MCF7 breast and in the experiment on EKVX NSCLC was over 100 µM in each case.

`N/C(=N\Nc1ccc(Cl)cc1)c1cnccn1`: the TGI with SK-OV-3 ovarian, with CAKI-1 renal, in the experiment with MOLT-4 leukemia, in the experiment on A498 renal, in the experiment with MDA-MB-435 and with SK-MEL-28 melanoma was over 100 µM in each case. For the same compound, the TGI with OVCAR-3 ovarian, in the experiment on MALME-3M melanoma, in the experiment on MCF7 breast and with EKVX NSCLC was over 100 µM in each case.

`O=C1CSC(c2ccc([N+](=O)[O-])cc2)N1c1ccc(-c2ccc(-n3c(-c4ccccc4)nc4ccccc4c3=O)cc2)cc1` (stereo not given): the total growth inhibition concentration (TGI) with SK-OV-3 ovarian, in the experiment on CAKI-1 renal, in the experiment on MOLT-4 leukemia, with A498 renal, in the experiment on MDA-MB-435 and with SK-MEL-28 melanoma was over 100 µM throughout. Also, the TGI in the experiment on OVCAR-3 ovarian, in the experiment on MALME-3M melanoma, with MCF7 breast and with EKVX NSCLC was over 100 µM each time.

Take `Cc1ccc(-c2cc[n+]3c(n2)oc2ccccc23)cc1`: the TGI in the experiment on SK-OV-3 ovarian was over 100 µM; in the experiment with CAKI-1 renal it was over 100 µM; in the experiment on MOLT-4 leukemia, 31.3 µM; in the experiment with A498 renal, 65.4 µM; with MDA-MB-435, 57.6 µM; in the experiment on SK-MEL-28 melanoma it was 57.8 µM. In addition, the TGI with OVCAR-3 ovarian was 40.9 µM; in the experiment on MALME-3M melanoma it was 29.1 µM; with MCF7 breast, over 100 µM; with EKVX NSCLC, 56.2 µM.

Consider `C/C=C(\C)C(=O)O[C@@H]1CC(C)(C)CC2C3=CCC4[C@]56CC[C@](O)(OC5)C(C)(C)C6CC[C@@]4(C)C3(C)CC[C@]21C(=O)O` (stereo not given in full), for which the TGI in the experiment on SK-OV-3 ovarian, in the experiment with CAKI-1 renal, in the experiment on MOLT-4 leukemia, in the experiment on A498 renal, in the experiment on MDA-MB-435 and in the experiment on SK-MEL-28 melanoma was over 100 µM throughout. The TGI with OVCAR-3 ovarian, in the experiment with MALME-3M melanoma, in the experiment with MCF7 breast and in the experiment with EKVX NSCLC was over 100 µM in each case.
